We go through three molecules from article PMC8072580, “Predicting Pharmacokinetic Properties of Potential Anticancer Agents via Their Chromatographic Behavior on Different Reversed Phase Materials” (International Journal of Molecular Sciences, 2021).

Like-named read-outs stand apart in the source and are kept apart here.

Details of data set [1]: method as in PMID 31864156. Particulars: end-capped ODS column, aqueous acetonitrile; cited from earlier work.
The subject of a further data set is Danio rerio. The arrangement: method as in PMID 33390035. Particulars: cited from earlier work.
Data set [2] is described as follows: Micellar liquid chromatography (MLC), ODS-2 column, Brij 35 effluent: chromatographic lipophilicity. The format is physicochemical. Particulars: pH 7.4, ODS-2 column, 25 °C. An excerpt:
There are several theories that describe the effect of the concentration of the surfactant in the effluent on the retention of the solute in MLC [23]. The following Foley’s equation is best known in lipophilicity studies:(2) 1/k=1/km+KAM/km[M] where [M] is the total concentration of the surfactant in the mobile phase minus CMC; KAM is the constant that describes solute-micelle binding; and km is the solute retention parameter at the micellar concentration of zero, i.e., when the concentration of the surfactant monomer is equal to CMC. The KAM and km parameters can be evaluated from the slope and intercept of the experimental 1/k vs. [M] relationships.
Equation (2) describes a linear dependence between decreasing retention and increasing micelle concentration. This equation is valid for aqueous solutions of surfactant or mobile phases with the same concentrations of the organic modifier. The micellar retention parameter, log km, is considered analogous to the log kw parameter evaluated in RPLC. According to the information presented above, this parameter is considered to be a lipophilicity descriptor, and Equation (2) is a simple way to indirectly determine the lipophilic properties of compounds. It is postulated that retention in micellar chromatography depends on hydrophobic (lipophilic), electronic, and steric features of the compounds in a similar way as has been noted concerning pharmacokinetic phenomena. The additional similarity results from the fact that the phospholipids, cholesterol, fatty acids, and triglycerides included in the extracellular and intracellular fluids also form micelles with proteins.
(§1) In our investigations, the micellar retention factors were used to calculate the log km parameters using Equation (2) (Table 2). For all of the compounds 1-19, the relationships of 1/k vs. [M] were obtained with very good linearity, confirming that Foley’s equation correctly describes the effect of the concentration of the surfactant in the effluent on the retention of the solute. In our studies, the micellar log km parameters for three pharmacologically active sets of compounds 1-6, 7-14, and 15-19 and the log k factors for solutes 15-19 obtained on IAM and end-capped ODS stationary phases were determined experimentally. All these retention factors, together with the log kw values for compounds 1-14 obtained in our earlier investigations on IAM and end-capped ODS stationary phases, were used as lipophilicity descriptors in the QSARs methodology to predict the pharmacokinetic descriptors of the compounds that were tested.
(§2) Shimadzu Vp (Shimadzu, Izabelin, Polska) liquid chromatographic system was used in HPLC measurements. It was equipped with an LC 10AT pump, SPD 10A UV–Vis detector, SCL 10A system controller, CTO-10 AS chromatographic oven, and Rheodyne injector valve with a 20 μL loop. As the stationary phases, 3 different revered-phase materials were applied: Spherisorb ODS-2 column, 125 × 4 mm i.d., 5 μm (Merck, Lublin, Poland), Regis IAM.PC.DD2 column, 100 × 4.6 mm i.d., 10 μm (Morton Grove, Illinois, USA), and Purosphere RP-18e column, 125 × 4 mm i.d., 5 μm (Merck, Lublin, Poland).
In the MLC technique with an ODS-2 column, buffered Brij 35 mixtures (0.15; 0.125, 0.10, and 0.075 mol/L) with 7% (v/v) addition of isopropanol were used as mobile phases. The buffer was prepared from 0.01 mol/L solutions of Na2HPO4 and citric acid, and the pH 7.4 value was fixed before mixing with an organic modifier. The flow rate was 1 mL/min. Buffered acetonitrile mixtures were used as effluents with the IAM column. Acetonitrile concentration, expressed as a volume fraction, was changed in the range of 0.2–0.5, with the constant step of 0.1. The flow rate was 1.3 mL/min. Acetonitrile concentration was changed in the range of 0.3–0.6 with the RP-18e column, with the constant step of 0.1 and flow rate of 0.1 mL/min. As solutes tested there were used 19 newly designed structurally related compounds. […]

The test system of another data set is human cancer cells. Details: method as in PMID 31864156, PMID 16545495, PMID 25528370. Particulars: cited from earlier work.
Details of data set [3]: method as in PMID 31864156. Particulars: IAM.PC.DD2 column, buffered acetonitrile; cited from earlier work.
The nature of data set [4]: Immobilized artificial membrane (IAM.PC.DD2) chromatography: log kw,IAM. The data set is classed as physicochemical. Particulars: IAM.PC.DD2 column, buffered acetonitrile 0.2-0.5, 25 °C.
From the text: as §1, §2
(§3) In the MLC technique with an ODS-2 column, buffered Brij 35 mixtures (0.15; 0.125, 0.10, and 0.075 mol/L) with 7% (v/v) addition of isopropanol were used as mobile phases. The buffer was prepared from 0.01 mol/L solutions of Na2HPO4 and citric acid, and the pH 7.4 value was fixed before mixing with an organic modifier. The flow rate was 1 mL/min. Buffered acetonitrile mixtures were used as effluents with the IAM column. Acetonitrile concentration, expressed as a volume fraction, was changed in the range of 0.2–0.5, with the constant step of 0.1. The flow rate was 1.3 mL/min. Acetonitrile concentration was changed in the range of 0.3–0.6 with the RP-18e column, with the constant step of 0.1 and flow rate of 0.1 mL/min. As solutes tested there were used 19 newly designed structurally related compounds. Samples were dissolved in acetonitrile c.a. 0.005 mg/mL. The compounds were detected under UV light at λmax 254 nm. All measurements were carried out at a constant temperature (25 °C). The dead time values were measured from non-retained compound (e.g., sodium chloride) peaks. All reported k values are the average of at least 3 independent measurements.

The nature of data set [5]: End-capped ODS (RP-18e) column chromatography: log kw,ODS. The format is physicochemical. Particulars: acetonitrile 0.3-0.6, 25 °C.
From the text: as §1, §2, §3

Where [6] appears, read: 0.075 M Brij 35, 7% isopropanol.
Setting [7] is: 0.125 M Brij 35, 7% isopropanol.

With `Cc1ccccc1N1CCn2c1nnc(C(F)(F)F)c2=O` [Compound 8], the “log kw,ODS” value in data set [1] is 1.81 [19]. In addition, the “safety for early life stages of Danio rerio compared with pemetrexed” value with Danio rerio is “safer for the early life stages of Danio rerio than pemetrexed”. The “k (MLC retention factor)” value in data set [2] (setting [6]) is 6.50; in data set [2] (0.1 M Brij 35, 7% isopropanol) it was 5.97; in data set [2] (setting [7]), 5.52; in data set [2] (0.15 M Brij 35, 7% isopropanol), 5.28. In addition, the “antiproliferative effects in cancer cells compared with normal cells” value with human cancer cells is on record as “clearly higher antiproliferative effects in cancer cells than in normal cells”. Further, the “log kw,IAM” value in data set [3] was 0.76 [19].

Consider `O=c1c(C(F)(F)F)nnc2n1CCN2c1ccccc1` [Compound 7], for which the “log kw,ODS” value in data set [1] is 1.92 [19]. In addition, the “safety for early life stages of Danio rerio compared with pemetrexed” value in the data set with Danio rerio is listed as “safer for the early life stages of Danio rerio than pemetrexed”. Further, the “k (MLC retention factor)” value was 14.11 in data set [2] (setting [6]); 12.22 in data set [2] (0.1 M Brij 35, 7% isopropanol); 10.72 in data set [2] (setting [7]); 10.02 in data set [2] (0.15 M Brij 35, 7% isopropanol). Besides, the “log kw,IAM” value in data set [3] is 0.94 [19].

In the case of `CCOC(=O)c1nnc2n(c1=O)CCN2c1cccc(Cl)c1` [Compound 17], in data set [4], the “log kw,IAM” value is listed as 1.73. In addition, the “k (MLC retention factor)” value in data set [2] (setting [6]) is given as 10.12; in data set [2] (0.1 M Brij 35, 7% isopropanol) it was 8.72; in data set [2] (setting [7]), 8.00; in data set [2] (0.15 M Brij 35, 7% isopropanol), 8.00. The “log kw,ODS” value in data set [5] stood at 2.62. The “antiproliferative effects in cancer cells compared with normal cells” value in the data set on human cancer cells is “clearly higher antiproliferative effects in cancer cells than in normal cells”.
